Measured values reported in US10653688B2, “6-(6-membered heteroaryl and aryl)isoquinolin-3-yl carboxamides and preparation and use thereof” (Samumed, LLC, priority 2017, dated 2020).
Read-outs that look alike come from different tables or passages of the source.

What was measured:
[1] = tested on: LL29 cells (primary human fibroblasts derived from IPF patients), α-smooth muscle actin; assay: Inhibition of fibrotic process: TGF-β1-treated primary human fibroblasts, αSMA staining; type: cell-based; conditions: Homo sapiens, Fibroblast; for EC50: 96 h, TGF-β1 20 ng/mL, 4 days, % cells positive for αSMA; for inhibition at 10 µM: read-out: percent inhibition at 10 μM (given for EC50 >10 μM), TGF-β1, αSMA, 10 μM;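 on all read-outs here: controls were TGF-β1-stimulated wells with DMSO vehicle as the positive reference and cells given DMSO alone as the negative reference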
Description: Representative compounds were screened using primary human fibroblasts (derived from IPF patients) treated with TGF-β1 to determine their ability to inhibit the fibrotic process.
Human Fibroblast Cell Culture:
Each compound was dissolved in DMSO as a 10 mM stock and used to prepare compound source plates. […] LL29 cells were plated at 1,500 cells/well in 70 μL/well F12 medium supplemented with 1% Fetal Bovine Serum. […] Wells treated with TGF-β1 and containing DMSO were used as positive control, and cells with only DMSO were negative control. Cells were incubated at 37° C. and 5% CO2 for 4 days. Following incubation for 4 days, SYTOX green nucleic acid stain (Life Technologies [Thermo Fisher Scientific]) was added to the wells at a final concentration of 1 μM and incubated at room temperature for 30 min. Cells were then fixed using 4% formaldehyde (Electron Microscopy Sciences), washed 3 times with PBS followed by blocking and permeabilization using 3% Bovine Serum Albumin (BSA; Sigma) and 0.3% Triton X-100 (Sigma) in PBS.

[2] = tested on: SW480 colon carcinoma cells; assay: Cell viability assay (CellTiter-Glo); type: cell-based, human; conditions: Homo sapiens; for EC50: 96 h, four days, CellTiter-Glo
[3] = tested on: IL-6 in human peripheral blood mononuclear cells (huPBMCs); assay: IL-6 inhibition in LPS-stimulated human peripheral blood mononuclear cells (HTRF); type: cell-based; conditions: Homo sapiens, PBMC; for EC50: LPS 50 ng/mL, 22 hours, IL-6 HTRF; for inhibition at 10 µM: read-out: percent inhibition at 10 μM (given for EC50 >10 μM), LPS, IL-6, 10 μM
Outline: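 Fresh normal human PBMCs at 1×10e6 cells/mL in RPMI with 1% FBS received compound, then 50 ng/mL E. coli 0111:B4 LPS 2 h later, and were incubated a further 22 h at 37° C. IL-6 read by HTRF (665/620 nm ratio), normalized to DMSO; EC50 from 4-parameter fit.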

[4] = tested on: Wnt activity (SW480 colon carcinoma cells stably expressing the Sp5-Luc reporter gene); assay: Wnt activity screening assay (Sp5-Luc reporter gene assay); type: cell-based, human; conditions: Homo sapiens; for EC50: 36 to 48 hours; for inhibition at 10 µM: read-out: percent inhibition at 10 μM (given for EC50 >10 μM), 10 μM
Outline: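 SW480 colon carcinoma cells stably carrying a lentiviral luciferase reporter driven by an Sp5 promoter with eight TCF/LEF sites, plated at 4,000 cells/well in DMEM with 1% FBS. Compound exposure for 36–48 h at 37 °C, then luminescence read. Signals normalized to DMSO; EC50 from four-parameter nonlinear fit.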

[5] = target: recombinant DYRK1A kinase (Homo sapiens (Human), UniProt Q13627); assay: DYRK1A kinase assay (Ser/Thr 18 peptide Z-lyte, FRET)
[6] = target: recombinant GSK3β kinase (Homo sapiens (Human), UniProt P49841); assay: GSK3β kinase assay (Ser/Thr 09 peptide Z-lyte, FRET); type: biochemical;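 further: FRET read-out as coumarin over fluorescein emission ratio, compounds incubated one hour at room temperature, IC50 from dose-response curve fit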
recombinant GSK3β kinase, sequence (P49841 whole entry): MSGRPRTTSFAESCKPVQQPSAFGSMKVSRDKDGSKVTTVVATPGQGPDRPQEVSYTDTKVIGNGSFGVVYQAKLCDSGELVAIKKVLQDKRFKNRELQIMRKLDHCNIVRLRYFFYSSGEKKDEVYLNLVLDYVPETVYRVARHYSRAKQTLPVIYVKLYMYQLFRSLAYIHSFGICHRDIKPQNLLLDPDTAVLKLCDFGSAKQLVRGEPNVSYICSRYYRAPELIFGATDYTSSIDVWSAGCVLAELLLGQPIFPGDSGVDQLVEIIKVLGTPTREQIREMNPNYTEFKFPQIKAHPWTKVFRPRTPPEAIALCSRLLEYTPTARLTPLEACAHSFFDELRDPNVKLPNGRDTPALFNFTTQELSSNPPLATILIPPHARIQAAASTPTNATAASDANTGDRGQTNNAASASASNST

[7] = DYRK1A kinase, head says EC50, method says IC50, ATP 30 μM
[8] = GSK3β kinase, head says EC50, method says IC50, ATP 46 μM

| EC50 [2] [nM] | EC50 [3] [nM] | EC50 [4] [nM] | EC50 [5, 7] [nM] | EC50 [6, 8] [nM] | EC50 [5] [nM] | EC50 [6] [nM] | SMILES | EC50 [1] [nM] | inhibition at 10 µM [1] [%] | inhibition at 10 µM [3] [%] | inhibition at 10 µM [4] [%] | inhibition at 10 µM ([2]; read-out: percent inhibition at 10 μM (given for EC50 >10 μM), 10 μM) [%] |
| --- | --- | --- | --- | --- | --- | --- | --- | --- | --- | --- | --- | --- |
| 1960 | 1360 | 1470 | 2 | 128 |  |  | CC(C)N1CCC(Nc2cncc(-c3ccc4cnc(NC(=O)C5CC(F)(F)C5)cc4c3)n2)CC1 [Compound 117, 3,3-Difluoro-N-(6-(6-((1-isopropylpiperidin-4-yl)amino)pyrazin-2-yl)isoquinolin-3-yl)cyclobutane-1-carboxamide] | 170 |  |  |  |  |
| 225 | 765 | 75 |  |  | 2 | > 10000 | CN1CCN(c2cc(C(=O)Nc3cc4cc(-c5cncc(N)c5)ccc4cn3)ccn2)CC1 [Compound 38, N-(6-(5-Aminopyridin-3-yl)isoquinolin-3-yl)-2-(4-methylpiperazin-1-yl) isonicotinamide] | 603 |  |  |  |  |
| 8700 | > 10000 | 9690 | > 10000 | > 10000 |  |  | CN1CCN(CC(=O)Nc2cc3cc(-c4ccc(C(F)(F)F)nc4)ccc3cn2)CC1 [Compound 30, 2-(4-Methylpiperazin-1-yl)-N-(6-(6-(trifluoromethyl)pyridin-3-yl)isoquinolin-3-yl)acetamide] | > 10000 | 24.9 | 5.2 |  |  |
| 3740 | 3280 | 4080 | 57 | > 10000 |  |  | Cc1cc2cc(-c3ccc4cnc(NC(=O)c5ccnc(N6CCN(C)CC6)c5)cc4c3)cnc2[nH]1 [Compound 133, N-(6-(2-Methyl-1H-pyrrolo[2,3-b]pyridin-5-yl)isoquinolin-3-yl)-2-(4-methylpiperazin-1-yl)isonicotinamide] | 4030 |  |  |  |  |
| 8330 | > 10000 | 3570 | 13 | > 10000 |  |  | CN1CCN(c2cc(C(=O)Nc3cc4cc(-c5cncc(N6CCCC6)n5)ccc4cn3)ccn2)CC1 [Compound 123, 2-(4-Methylpiperazin-1-yl)-N-(6-(6-(pyrrolidin-1-yl)pyrazin-2-yl)isoquinolin-3-yl)isonicotinamide] | 1040 |  | 20.9 |  |  |
| 501 | 3920 | 378 | 4 | > 10000 |  |  | CN1CCN(c2cc(C(=O)Nc3cc4cc(-c5cnc6cc[nH]c6c5)ccc4cn3)ccn2)CC1 [Compound 130, N-(6-(1H-Pyrrolo[3,2-b]pyridin-6-yl)isoquinolin-3-yl)-2-(4-methylpiperazin-1-yl)isonicotinamide] | 941 |  |  |  |  |
| 647 | > 10000 | 382 |  |  | 3 | > 10000 | O=C(Nc1cc2cc(-c3cncc(CN4CCC(O)CC4)c3)ccc2cn1)c1ccc(F)cc1 [Compound 54, 4-Fluoro-N-(6-(5-((4-hydroxypiperidin-1-yl)methyl)pyridin-3-yl)isoquinolin-3-yl)benzamide] | > 10000 | 11.2 | 17.9 |  |  |
| 6920 | > 10000 | > 10000 | 12 | > 10000 |  |  | O=C(Nc1cc2cc(-c3cncc(CN4CCCC4)c3)ccc2cn1)c1ccc(F)cc1 [Compound 52, 4-Fluoro-N-(6-(5-(pyrrolidin-1-ylmethyl)pyridin-3-yl)isoquinolin-3-yl) benzamide] | > 10000 | 37.1 | 17.6 | 17.7 |  |
| 7910 | 8760 | 4210 | 328 | 2590 |  |  | O=C(CN1CCCC1)Nc1cc2cc(-c3ccnnc3)ccc2cn1 [Compound 68, N-(6-(Pyridazin-4-yl)isoquinolin-3-yl)-2-(pyrrolidin-1-yl)acetamide] | 3380 |  |  |  |  |
| 324 | 2820 | 159 |  |  | 3 | > 10000 | CN1CCN(c2cc(C(=O)Nc3cc4cc(-c5cccnc5)ccc4cn3)ccn2)CC1 [Compound 13, 2-(4-Methylpiperazin-1-yl)-N-(6-(pyridin-3-yl)isoquinolin-3-yl) isonicotinamide] | 805 |  |  |  |  |
| 2460 | 6710 | 757 | 2 | > 10000 |  |  | CNc1cncc(-c2ccc3cnc(NC(=O)c4ccnc(N5CCN(C)CC5)c4)cc3c2)n1 [Compound 85, N-(6-(6-(Methylamino)pyrazin-2-yl)isoquinolin-3-yl)-2-(4-methylpiperazin-1-yl)isonicotinamide] | 1850 |  |  |  |  |
| 31 | 87 | 24 | 2 | 4800 |  |  | CN(C)C1CN(c2cc(C(=O)Nc3cc4cc(-c5cncc(NC(C)(C)C)n5)ccc4cn3)ccn2)C1 [Compound 98, N-(6-(6-(tert-Butylamino)pyrazin-2-yl)isoquinolin-3-yl)-2-(3-(dimethylamino)azetidin-1-yl)isonicotinamide] | 32 |  |  |  |  |
| 3930 | 8810 | 6210 | 54 | > 10000 |  |  | Cc1c[nH]c2ncc(-c3ccc4cnc(NC(=O)c5ccnc(N6CCN(C)CC6)c5)cc4c3)cc12 [Compound 134, N-(6-(3-Methyl-1H-pyrrolo[2,3-b]pyridin-5-yl)isoquinolin-3-yl)-2-(4-methylpiperazin-1-yl)isonicotinamide] | 2750 |  |  |  |  |
| 226 | 401 | 153 | 19 | > 10000 |  |  | CC(C)(C)Nc1cncc(-c2ccc3cnc(NC(=O)c4ccnc(N5CCOCC5)c4)cc3c2)n1 [Compound 102, N-(6-(6-(tert-Butylamino)pyrazin-2-yl)isoquinolin-3-yl)-2-morpholinoisonicotinamide] | 94 |  |  |  |  |
| 1190 | 2140 | 1040 | 4 | > 10000 |  |  | COc1cncc(-c2ccc3cnc(NC(=O)c4ccnc(N5CCN(C)CC5)c4)cc3c2)c1 [Compound 34, N-(6-(5-Methoxypyridin-3-yl)isoquinolin-3-yl)-2-(4-methylpiperazin-1-yl) isonicotinamide] | 507 |  |  |  |  |
| 18 | 106 | 9 |  |  | 1 | 4 | O=C(Nc1cc2cc(-c3cncc(N[C@H]4CCNC[C@@H]4F)n3)ccc2cn1)C1CC1 [Compound 111, N-(6-(6-(((3S,4S)-3-Fluoropiperidin-4-yl)amino)pyrazin-2-yl)isoquinolin-3-yl)cyclopropanecarboxamide] | 1520 |  |  |  |  |
| 493 | 1220 | 379 | 2 | 8860 |  |  | Nc1cncc(-c2ccc3cnc(NC(=O)c4ccc(F)cc4)cc3c2)c1 [Compound 36, N-(6-(5-Aminopyridin-3-yl)isoquinolin-3-yl)-4-fluorobenzamide] | 292 |  |  |  |  |
| 235 | 374 | 142 | 9 | 3370 |  |  | CC(C)Nc1cncc(-c2ccc3cnc(NC(=O)c4cccc(C5CCNCC5)c4)cc3c2)n1 [Compound 92, N-(6-(6-(Isopropylamino)pyrazin-2-yl)isoquinolin-3-yl)-3-(piperidin-4-yl) benzamide] | 3220 |  |  |  |  |
| > 10000 | 6750 | > 10000 |  |  | 242 | > 10000 | CN1CCN(c2cc(C(=O)Nc3cc4cc(-c5ccccn5)ccc4cn3)ccn2)CC1 [Compound 4, 2-(4-Methylpiperazin-1-yl)-N-(6-(pyridin-2-yl)isoquinolin-3-yl) isonicotinamide] | 3750 |  |  | 3.3 | 21.3 |
| 5860 | 7160 | 4010 | 75 | > 10000 |  |  | CN1CCN(c2cc(C(=O)Nc3cc4cc(-c5cc(N)cc(F)c5)ccc4cn3)ccn2)CC1 [Compound 1, N-(6-(3-Amino-5-fluorophenyl)isoquinolin-3-yl)-2-(4-methylpiperazin-1-yl) isonicotinamide] | 2300 |  |  |  |  |
| 6560 | 9680 | 2320 |  |  | 40 | > 10000 | CN1CCN(c2cc(C(=O)Nc3cc4cc(-c5cncc(N(C)C)c5)ccc4cn3)ccn2)CC1 [Compound 48, N-(6-(5-(Dimethylamino)pyridin-3-yl)isoquinolin-3-yl)-2-(4-methylpiperazin-1-yl)isonicotinamide] | 4880 |  |  |  |  |
